Experimental data taken from US9809598B2 (Merck Patent GmbH, priority 2014, dated 2017).
Where a name gives a salt, the structure may show the parent alone.

Columns and labels:
TNKS2 = target: T1, TNKS2 (Homo sapiens, UniProt Q9H2K2); test: TNKS2 activity ELISA (autoparsylation assay); format: biochemical; details: GST-tagged Tnks-2 (873-1166 aa); read-out: IC50 [M] TNKS2 ELISA
T1 construct: GST-tagged Tnks-2 (873-1166 aa, prepared in-house); made in house
Summary of the method: (§1)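 GST-tagged TNKS1 or TNKS2 captured on glutathione plates and allowed to auto-PARsylate with biotinylated NAD with or without compound. Biotin-ADP-ribosylated enzyme detected by streptavidin-HRP and luminescence; IC50 relative to inhibitor-free reaction.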

Tankyrases = details: read-out: EC50 [M] TNKS cellular assay; DLD1 cells, 24 hours, Axin2 increase
TNKS1 = target: T2, TNKS1 (Homo sapiens, UniProt O95271); test: TNKS1 activity ELISA (autoparsylation assay); format: biochemical; details: GST-tagged Tnks-1 (1023-1327 aa)
T2 construct: GST-tagged Tnks-1 (1023-1327 aa, prepared in-house); made in house
T2 sequence (O95271 1023-1327): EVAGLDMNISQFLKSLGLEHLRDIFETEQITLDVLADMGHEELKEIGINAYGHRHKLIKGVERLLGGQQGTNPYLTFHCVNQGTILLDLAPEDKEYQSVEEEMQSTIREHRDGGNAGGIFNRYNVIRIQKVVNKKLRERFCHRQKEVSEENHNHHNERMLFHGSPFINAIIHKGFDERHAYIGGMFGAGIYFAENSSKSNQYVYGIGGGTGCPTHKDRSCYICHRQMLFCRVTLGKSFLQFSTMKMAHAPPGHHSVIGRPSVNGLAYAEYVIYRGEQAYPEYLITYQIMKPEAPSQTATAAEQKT
Summary of the method: as §1

PARP-1 = target: T3, PARP-1 (Homo sapiens, UniProt P09874); test: PARP-1 autoparsylation assay (HTRF); format: biochemical; details: His-tagged Parp-1, autoparsylation HTRF
T3 construct: purchased Enzo Life Sciences GmbH, Lörrach, Germany
T3 sequence (P09874 whole entry): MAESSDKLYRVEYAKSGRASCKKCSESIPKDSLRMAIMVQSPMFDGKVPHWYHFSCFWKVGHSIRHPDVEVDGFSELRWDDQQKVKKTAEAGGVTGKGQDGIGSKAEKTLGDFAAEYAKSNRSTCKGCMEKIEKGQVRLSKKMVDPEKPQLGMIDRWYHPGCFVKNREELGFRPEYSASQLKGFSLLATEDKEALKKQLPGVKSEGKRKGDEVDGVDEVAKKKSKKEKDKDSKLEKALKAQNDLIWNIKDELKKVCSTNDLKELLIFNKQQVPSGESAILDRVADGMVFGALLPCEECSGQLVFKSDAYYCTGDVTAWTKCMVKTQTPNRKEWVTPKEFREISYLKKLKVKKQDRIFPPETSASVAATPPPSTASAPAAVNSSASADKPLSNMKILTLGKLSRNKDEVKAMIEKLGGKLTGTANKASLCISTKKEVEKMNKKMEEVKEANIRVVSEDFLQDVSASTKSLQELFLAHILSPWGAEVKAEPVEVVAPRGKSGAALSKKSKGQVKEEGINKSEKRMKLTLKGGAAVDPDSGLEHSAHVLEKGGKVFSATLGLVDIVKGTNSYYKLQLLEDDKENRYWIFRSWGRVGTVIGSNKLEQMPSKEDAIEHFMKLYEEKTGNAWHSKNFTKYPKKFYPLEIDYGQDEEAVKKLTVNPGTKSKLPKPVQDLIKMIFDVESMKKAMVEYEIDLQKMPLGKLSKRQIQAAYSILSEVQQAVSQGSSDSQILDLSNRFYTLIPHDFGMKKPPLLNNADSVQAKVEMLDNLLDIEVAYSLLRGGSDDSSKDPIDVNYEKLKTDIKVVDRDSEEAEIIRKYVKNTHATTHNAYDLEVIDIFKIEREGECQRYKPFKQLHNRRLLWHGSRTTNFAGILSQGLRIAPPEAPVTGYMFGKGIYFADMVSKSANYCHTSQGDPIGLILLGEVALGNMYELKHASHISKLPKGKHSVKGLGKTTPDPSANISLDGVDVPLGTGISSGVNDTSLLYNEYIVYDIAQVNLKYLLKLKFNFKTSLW
Summary of the method: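 His-tagged enzyme auto-modifies itself using biotinylated NAD/NAD; product detected by TR-FRET between cryptate anti-His antibody and Xlent-streptavidin, as emission ratio.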

T1 sequence (Q9H2K2 873-1166): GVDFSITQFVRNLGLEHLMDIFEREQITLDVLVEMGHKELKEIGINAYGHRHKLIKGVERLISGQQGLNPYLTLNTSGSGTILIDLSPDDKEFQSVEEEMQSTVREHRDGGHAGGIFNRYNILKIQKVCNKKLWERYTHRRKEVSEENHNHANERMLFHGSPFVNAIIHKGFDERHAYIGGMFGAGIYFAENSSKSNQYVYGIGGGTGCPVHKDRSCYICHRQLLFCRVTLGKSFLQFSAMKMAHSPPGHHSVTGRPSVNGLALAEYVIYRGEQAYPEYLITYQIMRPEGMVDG

| Compound | IC50 (TNKS2) [M] | EC50 (Tankyrases) [M] | IC50 (TNKS1) [µM] | IC50 (PARP-1) [µM] |
| --- | --- | --- | --- | --- |
| COc1ccc(C(=O)C2CCN(C(=O)CCCc3nc(C)c(C)c(=O)[nH]3)CC2)cc1 [Compound C239, 2-{4-[4-(4-Methoxy-benzoyl)-piperidin-1-yl]-4-oxo-butyl}-5,6-dimethyl-3H-pyrimidin-4-one] | 8.2e-10 | 1.5e-08 | 0.0026 | 24 |
| Cc1nc(CCCC(=O)N2CCC(C(=O)c3ccc(F)cc3)CC2)[nH]c(=O)c1C [Compound C240, 2-{4-[4-(4-Fluoro-benzoyl)-piperidin-1-yl]-4-oxo-butyl}-5,6-dimethyl-3H-pyrimidin-4-one] | 5.3e-09 | 5.8e-07 | 0.014 | 19 |
| CCn1cc(C(=O)C2CCN(C(=O)CCCc3nc4c(ccn4C)c(=O)[nH]3)CC2)cn1 [Compound C243, 2-{4-[4-(1-Ethyl-1H-pyrazole-4-carbonyl)-piperidin-1-yl]-4-oxo-butyl}-7-methyl-3,7-dihydro-pyrrolo[2,3-d]pyrimidin-4-one] | 2.2e-10 | 3.4e-08 | 0.00047 | 4.2 |
| Cn1ncc2c(=O)[nH]c(CCCC(=O)N3CCC(C(=O)c4ccc(C(C)(F)F)cc4)CC3)nc21 [Compound C245, 6-(4-{4-[4-(1,1-Difluoro-ethyl)-benzoyl]-piperidin-1-yl}-4-oxo-butyl)-1-methyl-1,5-dihydro-pyrazolo[3,4-d]pyrimidin-4-one] | 1.7e-10 | 4.8e-09 | 0.00041 | 5.8 |
| Cn1ncc2c(=O)[nH]c(CCCC(=O)N3CCC(C(=O)c4ccc(F)c(F)c4)CC3)nc21 [Compound C246, 6-{4-[4-(3,4-Difluoro-benzoyl)-piperidin-1-yl]-4-oxo-butyl}-1-methyl-1,5-dihydro-pyrazolo[3,4-d]pyrimidin-4-one] | 3.2e-10 | 2.5e-08 | 0.00063 | 13 |
| O=C(c1ccc(Cl)cc1)C1CCN(C(=O)CCCc2nc3c(c(=O)[nH]2)COCC3)CC1 [Compound C247, 2-{4-[4-(4-Chloro-benzoyl)-piperidin-1-yl]-4-oxo-butyl}-3,5,7,8-tetrahydro-pyrano[4,3-d]pyrimidin-4-one trifluoroacetate] | 6.6e-10 | 2.1e-08 | 0.0033 | 3.5 |
| Cn1ccc2c(=O)[nH]c(CCCC(=O)N3CCC(C(=O)c4ccc(F)c(F)c4)CC3)nc21 [Compound C248, 2-{4-[4-(3,4-Difluoro-benzoyl)-piperidin-1-yl]-4-oxo-butyl}-7-methyl-3,7-dihydro-pyrrolo[2,3-d]pyrimidin-4-one] | 2.3e-10 | 8.7e-09 | 0.0007 | 2.4 |
| Cn1ccc2c(=O)[nH]c(CCCC(=O)N3CCC(C(=O)c4ccc(C(C)(F)F)cc4)CC3)nc21 [Compound C249, 2-(4-{4-[4-(1,1-Difluoro-ethyl)-benzoyl]-piperidin-1-yl}-4-oxo-butyl)-7-methyl-3,7-dihydro-pyrrolo[2,3-d]pyrimidin-4-one] | 1.2e-10 | 1.8e-09 | 0.00042 | 1.1 |
| COc1ccc(C(=O)C2CN(C(=O)CCCc3cn4cccc4c(=O)[nH]3)C2)cc1 [Compound D1, 3-{4-[3-(4-Methoxy-benzoyl)-azetidin-1-yl]-4-oxo-butyl}-2H-pyrrolo[1,2-a]pyrazin-1-one] | 8.5e-08 | 5.4e-07 | 0.12 | 3.1 |
